# Measurements reported in patent publication US5814600A, “Method and composition for treatment of insulin requiring mammals” (Amylin Pharmaceuticals Inc., priority 1994, dated 1998).
# Entries after “also recorded” stand apart in the source; their conditions may differ. Read-outs that look alike come from different tables or passages of the source.
# Experiments:
# [1] = system: streptozotocin-diabetic rats; assay: Liver glycogen in insulin-treated streptozotocin diabetic rats, daily s.c. amylin replacement; assay type: in vivo, rat
# Protocol: There were 68 male Harlan Sprague Dawley rats (mass 301±3 g) in 8 treatment groups. Animals were housed at 22.7±0.8° C. in a 12:12 hour light:dark cycle (experiments being performed during the light cycle) and fed and watered ad libitum (Diet LM-485, Teklad, Madison, Wis.). The rats were sacrificed for harvesting of livers 4 to 5 hours into the light cycle.
# Animals were injected with streptozotocin (Sigma Chemical Company, St Louis, Mo.: Sigma 50130) dissolved in water in a dose of 65 mg/kg into the lateral tail vein. […] Maintaining diabetic rats in this metabolic state optimizes survival. Following one week of established diabetes, animals received once daily s.c. injections of amylin vehicle (water for injection) for 5 days given at the time of the insulin injection.
# These animals were treated identically to those in group 1 except that the daily subcutaneous injection contained 3 μg (n=5); 10 μg (n=12); 30 μg (n=5); 100 μg (n=5) or 300 μg (n=5) of rat amylin (Bachem lot# WG485^2/). The bioactivity of the peptide used in these experiments was first verified by bioassay, using inhibition of insulin-stimulated radioglucose incorporation into glycogen in the isolated stripped rat soleus muscle. […] The insulin dose in each of the groups of diabetic animals averaged 1.67 U/animal/day. There were no other observable differences in the required management of the different groups.
# These animals were derived from the same stock and housed under the same conditions for the same time as those in groups 1-6, but were given no injections. 24 hours after the fifth daily injection of amylin or water (or an equivalent time after admission to the vivarium in the case of group 7 rats), the non-fasted rats were killed by decapitation and the livers immediately removed and frozen in liquid N2, weighed and stored for subsequent determination of glycogen concentration.
# Whole livers were powdered while frozen. Approximately 200 mg of powder was further homogenized in 1.0 mL of 0.6M perchloric acid to denature enzymes. 200 μL of the homogenate was neutralized with 0.5 volumes of 1.0M KHCO3 in either of two acetate buffer solutions, one containing 2.0 mL of 200 mM acetate (pH4.8), the other containing the same but with 18.5 U/mL of amyloglucosidase (EC5 3.2.1.3, from Aspergillus nicer, Sigma A3423, Sigma Chemical Company, St Louis, Mo.) added. Following at least 20 minutes incubation at 23° C., the supernatants were assayed for glucose in an analyzer using D-glucose oxidase immobilized enzyme chemistry (Analyzer model 2300-STAT, YSI, Yellow Springs, Ohio). Purified rabbit liver glycogen (Sigma G8876) used as a standard indicated 98±4% recovery of dissolved glycogen and linearity within the range of observed liver glycogen concentrations (r=0.9994). All reagents were of analytical grade or better.
# Statistical comparisons were by Student's t-test routines contained in the SYSTAT system (Systat, Evanston, Ill.). All results are reported as means ± standard error of the mean.
# [2] = system: liver glucose output; settings: rats; Molina et al. 1990, Koopmans et al. 1990; cited from earlier work
# [3] = system: rat soleus muscle; assay type: cell-based
# Protocol: Male Harlan Sprague Dawley rats of approximately 200 g mass were used in order to maintain soleus muscle mass less than 40 mg. The animals were fasted for 4 hours prior to sacrifice by decapitation. The skin was stripped from the lower limb which was then pinned out on cork board. The tendo achilles was cut just above os […]. gastrocnemius reflected out from the posterior aspect of the tibia. M. soleus, a small […], 0.55 mm thick flat muscle on the bone surface of m. gastrocnemius was then stripped clear and the perimysium cleaned off using fine scissors and forceps. M. soleus was then split into equal parts using a blade passed antero-posteriorly through the belly of the muscle to obtain a total of 4 muscle strips from each animal. After dissecting the muscle from the animal, it was kept for a short period in physiological saline. The muscle was not held under tension, as reported in other methodologies since in our hands this had no demonstrable effect on the insulin-sensitivity of radioglucose incorporation into glycogen. Muscles were added to 50 mL Erlenmeyer flasks containing 10 mL of a pregassed Krebs-Ringer bicarbonate buffer containing (mM) NaCl 118.5; KCl 5.94; CaCl2 2.54; MgSO4 1.19; KH2 PO4 1.19; NaHCO3 25; glucose 5.5; and recombinant human insulin (Humulin-R, Eli Lilly, Ind.) and either synthetic rat (Bachem, Torrance, Calif. Lot# ZG485) or synthetic human amylin (Bachem, Torrance, Calif. Lot# ZH144) as detailed below. Methods used to determine the nature and purity of rat and human amylin included quantitative amino acid analysis, gas phase amino acid sequencing, reverse phase HPLC and fast-atom-bombardment mass spectrometry. […] Incorporation of mercury into rat amylin may be a feature of many commercially available batches that have already been used in published studies. Since the peptide was bioactive, its action in muscle was expected to at least qualitatively mimic that of true rat amylin. The mercuric method of cyclization was not used in the synthesis of human amylin, which is found by electrospray ionization mass spectrometry and atomic absorption spectroscopy to be mercury-free. Muscles were assigned to different flasks so that the four muscle pieces from each animal were evenly distributed among the different assay conditions. The incubation media were gassed by gently blowing carbogen (95% O2, 5% CO2) over the surface while it was continuously agitated at 37° C. in an oscillating water bath. pH of gassed media at 37° C. was verified as being between 7.1 and 7.4. After a half-hour preincubation, 0.5 μCi of [U-^14 C]-glucose was added to each flask for a further 60 minutes. Each muscle piece was then rapidly removed, trimmed of tendons, blotted, frozen in liquid N2, weighed and then stored at […] for subsequent determination of ^14 C-glycogen. The incubation medium was also frozen for subsequent analysis. The concentration of human amylin present in the medium at the end of the incubation was determined by radioimmunoassay in surfactant-containing buffer. For both human and rat amylin, the actual mass added to the incubation medium was determined by quantitative amino-acid analysis. Each frozen muscle specimen was placed in a vial with 1 mL 60% potassium hydroxide (wt/vol) and digested at 70° C. for 45 minutes under intermittent vigorous agitation. Dissolved glycogen was precipitated onto the walls of the vial by addition of 3 mL absolute ethanol and overnight cooling at -20° C. After centrifugation for 30 minutes at 2000 x-- g, the supernatant was gently aspirated, the glycogen was again washed with ethanol and centrifuged, the ethanol aspirated and the precipitate dried under vacuum. It was important to evaporate all ethanol to avoid quenching during scintillation counting. The remaining glycogen was redissolved in 1 mL water and 4 mL scintillation fluid and counted for ^14 C. […]
smiles,measurement,setting,value
CC(C)C[C@H](NC(=O)[C@H](CC(N)=O)NC(=O)[C@H](CC(N)=O)NC(=O)[C@H](CO)NC(=O)[C@H](CO)NC(=O)[C@H](CCCNC(=N)N)NC(=O)[C@@H](NC(=O)[C@H](CC(C)C)NC(=O)[C@H](Cc1ccccc1)NC(=O)[C@H](CC(N)=O)NC(=O)[C@H](C)NC(=O)[C@H](CC(C)C)NC(=O)[C@H](CCCNC(=N)N)NC(=O)[C@H](CCC(N)=O)NC(=O)[C@@H](NC(=O)[C@H](C)NC(=O)[C@@H]1CSSC[C@H](NC(=O)[C@@H](N)CCCCN)C(=O)N[C@@H](CC(N)=O)C(=O)N[C@@H]([C@@H](C)O)C(=O)N[C@@H](C)C(=O)N[C@@H]([C@@H](C)O)C(=O)N1)[C@@H](C)O)C(C)C)C(=O)NCC(=O)N1CCC[C@H]1C(=O)N[C@H](C(=O)N[C@@H](CC(C)C)C(=O)N1CCC[C@H]1C(=O)N1CCC[C@H]1C(=O)N[C@H](C(=O)N[C@@H](CC(N)=O)C(=O)N[C@H](C(=O)NCC(=O)N[C@@H](CO)C(=O)N[C@@H](CC(N)=O)C(=O)N[C@H](C(=O)N[C@@H](Cc1ccc(O)cc1)C(N)=O)[C@@H](C)O)C(C)C)[C@@H](C)O)C(C)C [rat amylin],liver glycogen versus insulin alone,[1]; amylin 3 μg/day plus insulin,did not measurably increase glycogen levels
same,liver glycogen restoration towards normal,[1]; amylin 300 μg/day plus insulin,did not measurably restore liver glycogen towards normal
same,liver glycogen concentration versus normal animals,"[1]; amylin 10, 30 and 100 μg per day plus insulin",not significantly different from that in normal animals
same,liver glycogen versus insulin-only therapy,"[1]; amylin 10, 30 and 100 μg/day s.c. for 5 days plus insulin",Significant increases over insulin-only therapy; also recorded: dose-dependent increase in liver glycogen concentration above that in rats replaced with insulin alone
same,restoration of liver glycogen,"[1]; five consecutive daily subcutaneous injections, insulin-treated STZ diabetic rats",dose-dependently restored liver glycogen to normal levels
same,effect on insulin-mediated suppression of liver glucose output,[2],reverses insulin-mediated suppression of liver glucose output
same,EC50,[3]; 4 h,6.2 nM
same,"Amylin dose response: Maximal response, Mean ± SEM",[3]; [insulin] 0 nM (nominal),0.85 ± 0.17 μmol/g wet tissue/hr
same,EC50,"[3]; [insulin] 0 nM (nominal), nominal amylin concentrations, read-out: Amylin dose response: EC50, Mean ± log SE (converted)",12.2 ± 0.94 nM
same,"Amylin dose response: Maximal response, Mean ± SEM",[3]; [insulin] 0.21 nM (nominal),1.26 ± 0.18 μmol/g wet tissue/hr
same,EC50,"[3]; [insulin] 0.21 nM (nominal), nominal amylin concentrations, read-out: Amylin dose response: EC50, Mean ± log SE (converted)",10.3 ± 0.48 nM
same,"Amylin dose response: Maximal response, Mean ± SEM",[3]; [insulin] 0.71 nM (nominal),2.11 ± 0.18 μmol/g wet tissue/hr
same,EC50,"[3]; [insulin] 0.71 nM (nominal), nominal amylin concentrations, read-out: Amylin dose response: EC50, Mean ± log SE (converted)",8.24 ± 0.24 nM
same,"Amylin dose response: Maximal response, Mean ± SEM",[3]; [insulin] 2.1 nM (nominal),2.94 ± 0.18 μmol/g wet tissue/hr
same,EC50,"[3]; [insulin] 2.1 nM (nominal), nominal amylin concentrations, read-out: Amylin dose response: EC50, Mean ± log SE (converted)",10.4 ± 0.16 nM
same,"Amylin dose response: Maximal response, Mean ± SEM",[3]; [insulin] 7.1 nM (nominal),3.56 ± 0.19 μmol/g wet tissue/hr
same,EC50,"[3]; [insulin] 7.1 nM (nominal), nominal amylin concentrations, read-out: Amylin dose response: EC50, Mean ± log SE (converted)",8.69 ± 0.13 nM
same,"Amylin dose response: Maximal response, Mean ± SEM",[3]; [insulin] 71 nM (nominal),4.07 ± 0.18 μmol/g wet tissue/hr
same,EC50,"[3]; [insulin] 71 nM (nominal), nominal amylin concentrations, read-out: Amylin dose response: EC50, Mean ± log SE (converted)",11.93 ± 0.11 nM
same,mode of action on the insulin response in soleus muscle,[3]; from insulin/amylin dose response matrix,"noncompetitive, functional antagonist to insulin"
